One series can be described thus: in vitro. The following applies: mouse. From the text:
(§1) The breast cancer cells MDA-MB-231 (ATCC: HTB-26) and MCF-7 (ATCC: HTB-22) were used to determine antiproliferative activity under in vitro conditions. The breast epithelial cells (MCF-10A, ATCC: CRL-10317) and mouse embryonic fibroblasts (BALB/c 3T3 clone A31, ATCC: CCL-163) were used as control. Cell cultures were purchased from American Type Cultures Collection (ATCC, Manassas, Virginia, USA). In cell culture, growth medium DMEM-high glucose, 10% (v/v) FBS and antibiotics (Sigma-Aldrich, Schnelldorf, Germany) were used. Cells were incubated at 37 °C, 5% CO2 and 95% humidity. Cells were grown in plastic flasks with a surface of 75 cm^2 (Deltalab S.L., Barcelona, Spain).
A safety test was performed on the method BALB/c 3T3 Neutral Red Uptake cytotoxicity Assay. The data generated from the in vitro cytotoxicity assay can be used to determine the safety level of the investigated substances and can predict the starting doses for in vivo toxicity assays. The cells (BALB/c 3T3, clone A31) were seeded at 1 × 10^4 cells/100 μL/well in 96-well flat-bottomed microplates. The plates were placed in a thermostat at 37 °C, 5% CO2 and 95% humidity for 24 h. Peptides were pre-dissolved in DMSO and then culture medium (DMEM) was added. The cells were treated with the BIM-23052 analogs at concentrations from […]. The treated cell culture was incubated for 24 h in a thermostat under standard conditions. The microplates were then washed twice with PBS, and Neutral Red Desorb (1% acetic acid/50% ethanol/49% water) was added. Absorbance was measured by a microplate reader at a wavelength of 540 nm.
The safety test of BIM-23052 analogues was carried out by Neutral Red Uptake cytotoxicity Assay. Cell cultures were incubated with the tested peptide analogs for 24 h.
Mean values are presented ± SD from three independent experiments, n = 6.

Series [1] deals with MCF-7 breast cancer cells. The following applies: for IC50: 72 h.
From the text: as §1
(§2) Cell viability was determined by a colorimetric MTT-dye reduction assay. The method is based on an enzyme reaction leading to the reduction of […] (MTT) to formazan crystals. The concentration of formazan, which is directly proportional to cell viability, was determined by a spectrophotometric method. Cells (MCF-7, MDA-MB-231 and MCF-10A) were seeded at a 1 × 10^3 cells/100 µL/well in 96-well microplates. The plates were placed in a thermostat under standard conditions for 24 h. Cells were then treated with the peptide analogs at concentrations ranging from 7.5 to 2000 μm. The cells were then incubated in a thermostat for 72 h. The formazan concentration was measured spectrophotometrically by a microplate reader at a wavelength of 540 nm. The antiproliferative potential of BIM-23052 analogs was presented as IC50 values, calculated using GraphPad Prizm Software (San Diego, CA, USA).
(§3) The antiproliferative activity of BIM-23052 analogs was studied by MTT assay. The normal and tumor cell cultures were incubated with the peptide analogs with a concentration range from 7.5 to 2000 μm for 72 h. The antiproliferative activity was determined (Figure 3 and Table 3).
(§4) Figure 3 Dose–response curves for antiproliferative activity of BIM-23052 analogs determined in MCF-10A (ATCC® CRL-10317^TM), MCF-7 (ATCC® HTB-22^TM) and MDA-MB-231 (ATCC® HTB-26^TM) cell lines. Mean values are presented ± SD from three independent experiments, n = 6.

Series [2] concerns MDA-MB-231 breast cancer cells. The following applies: for IC50: 72 h.
From the text: as §1, §2, §3, §4

Series [3] concerns MCF-10A breast epithelial cells. As to conditions: 72 h.
From the text: as §1, §2, §3, §4

The mark [4] stands for this setting: read-out: Mean IC50 ± SD, Antiproliferative Effect, MCF-7, MTT, 7.5 to 2000 μm, absorbance 540 nm, mean ± SD, three independent experiments, n = 6.
[5] abbreviates: read-out: Mean IC50 ± SD, Antiproliferative Effect, MDA-MB-231, MTT, 7.5 to 2000 μm, absorbance 540 nm, mean ± SD, three independent experiments, n = 6.
Setting [6] is: read-out: Mean IC50 ± SD, Antiproliferative Effect, MCF-10A, MTT, 7.5 to 2000 μm, absorbance 540 nm, mean ± SD, three independent experiments, n = 6.
The mark [7] stands for this setting: SI = IC50 MCF-10A/IC50 MDA-MB-231.
Where [8] appears, read: BALB/c 3T3 clone A31 mouse embryonic fibroblasts.

10 molecules from article PMC10142861, “Synthesis, Antiproliferative Effect and In Silico LogP Prediction of BIM-23052 Analogs Containing Tyr Instead of Phe” (Pharmaceutics, 2023) can be followed below.

By IC50 is commonly meant the concentration needed to halve the response being measured.

“And” between values parts separate entries of the source, which are not always exact repeats. Equal entries are not always repeated. Where two headings read alike, the source gives them in different places. Square brackets hold non-standard residues; d marks the D form. Peptide text beside a SMILES is read from it.

`C[C@@H](O)[C@H](NC(=O)[C@H](Cc1ccccc1)NC(=O)[C@@H](NC(=O)[C@H](CCCCN)NC(=O)[C@@H](Cc1c[nH]c2ccccc12)NC(=O)[C@H](Cc1ccccc1)NC(=O)[C@H](Cc1ccccc1)NC(=O)[C@H](N)Cc1ccccc1)[C@@H](C)O)C(N)=O` [BIM-23052, D-Phe-Phe-Phe-D-Trp-Lys-Thr-Phe-Thr-NH2] (H-[dF]FF[dW]KTFT-NH2): it took 483 ± 32.1 µM to reach half-maximal inhibition in “in vitro” (IC50 at 24 h). For the same molecule, in series [1] (2 h), the “Selectivity index SI, MCF-7” value was 1.7. In addition, the IC50 in series [1] stood at 120 ± 6.53 µM; in series [2] it was 335 ± 15.4 µM; in series [3], 204 ± 6.32 µM. Besides, the “Selectivity index SI, MDA-MB-231” value in series [2] (2 h) was 0.61.
In the case of `N.N.[Cl][Pt][Cl]` [Cisplatin, reference compound], the IC50 in series [1] (setting [4]) stood at 43.1 ± 3.16 µM; in series [2] (setting [5]) it was 6.94 ± 0.47 µM; in series [3] (setting [6]) it was 64.3 ± 2.11 µM.
For the molecule `C[C@@H](O)[C@H](NC(=O)[C@H](Cc1ccccc1)NC(=O)[C@@H](NC(=O)[C@H](CCCCN)NC(=O)[C@@H](Cc1c[nH]c2ccccc12)NC(=O)[C@H](Cc1ccc(O)cc1)NC(=O)[C@H](Cc1ccc(O)cc1)NC(=O)[C@@H](N)Cc1ccc(O)cc1)[C@@H](C)O)C(N)=O` [D6, L-Tyr^1-Tyr^2-Tyr^3-D-Trp-Lys-Thr-Phe-Thr-NH2] (H-YYY[dW]KTFT-NH2), in the series “in vitro”, the IC50 at 24 h is > 1000 µM and 1320 µM. In addition, the “Selectivity index SI, MCF-7” value in series [1] (SI = IC50 MCF-10A/IC50 MCF-7) worked out at 0.53. Further, the IC50 in series [1] (setting [4]) came out at 359 ± 16.1 µM; in series [2] (setting [5]) it was 291 ± 12.7 µM; in series [3] (setting [6]) it was 191 ± 6.8 µM. Besides, the “Selectivity index SI, MDA-MB-231” value in series [2] (setting [7]) was determined as 0.66.
Regarding `C[C@@H](O)[C@H](NC(=O)[C@H](Cc1ccc(O)cc1)NC(=O)[C@@H](NC(=O)[C@H](CCCCN)NC(=O)[C@@H](Cc1c[nH]c2ccccc12)NC(=O)[C@H](Cc1ccccc1)NC(=O)[C@H](Cc1ccc(O)cc1)NC(=O)[C@@H](N)Cc1ccc(O)cc1)[C@@H](C)O)C(N)=O` [D7, L-Tyr^1-Tyr^2-Phe-D-Trp-Lys-Thr-Tyr^7-Thr-NH2] (H-YYF[dW]KTYT-NH2), half-maximal inhibition in the series “in vitro” (IC50 at 24 h) required 737 ± 20 µM. For the same molecule, the “Selectivity index SI, MCF-7” value in series [1] (SI = IC50 MCF-10A/IC50 MCF-7) turned out to be 1.07. Further, the half-maximal inhibitory concentration (IC50) in series [1] (setting [4]) turned out to be 403 ± 24.9 µM; in series [2] (setting [5]) it was 782 ± 19 µM; in series [3] (setting [6]) it was 433 ± 23.2 µM. The “Selectivity index SI, MDA-MB-231” value in series [2] (setting [7]) was 0.55.
With `C[C@@H](O)[C@H](NC(=O)[C@H](Cc1ccc(O)cc1)NC(=O)[C@@H](NC(=O)[C@H](CCCCN)NC(=O)[C@@H](Cc1c[nH]c2ccccc12)NC(=O)[C@H](Cc1ccc(O)cc1)NC(=O)[C@H](Cc1ccc(O)cc1)NC(=O)[C@@H](N)Cc1ccc(O)cc1)[C@@H](C)O)C(N)=O` [D9, L-Tyr^1-Tyr^2-Tyr^3-D-Trp-Lys-Thr-Tyr^7-Thr-NH2] (H-YYY[dW]KTYT-NH2), the half-inhibitory concentration (IC50) at 24 h in “in vitro” is > 1000 µM and 1430 µM. The “Selectivity index SI, MCF-7” value in series [1] (SI = IC50 MCF-10A/IC50 MCF-7) was 0.83. Moreover, the IC50 in series [1] (setting [4]) worked out at 477 ± 31.4 µM; in series [2] (setting [5]) it was 1410 ± 19.1 µM; in series [3] (setting [6]), 395 ± 15.3 µM. The “Selectivity index SI, MDA-MB-231” value in series [2] (setting [7]) stood at 0.28.
Regarding `C[C@@H](O)[C@H](NC(=O)[C@H](Cc1ccccc1)NC(=O)[C@@H](NC(=O)[C@H](CCCCN)NC(=O)[C@@H](Cc1c[nH]c2ccccc12)NC(=O)[C@H](Cc1ccccc1)NC(=O)[C@H](Cc1ccccc1)NC(=O)[C@H](N)Cc1ccc(O)cc1)[C@@H](C)O)C(N)=O` [D11, D-Tyr^1-Phe-Phe-D-Trp-Lys-Thr-Phe-Thr-NH2] (H-[dY]FF[dW]KTFT-NH2), in “in vitro”, the IC50 at 24 h was > 1000 µM and 1630 µM. For the same molecule, the “Selectivity index SI, MCF-7” value in series [1] (SI = IC50 MCF-10A/IC50 MCF-7) worked out at 0.99. Besides, the values for the IC50 in series [1] (setting [4]), in series [2] (setting [5]) and in series [3] (setting [6]) were 873 ± 26.6 µM, 1720 ± 58.6 µM and 864 ± 52.3 µM, respectively. The “Selectivity index SI, MDA-MB-231” value in series [2] (setting [7]) was 0.50.
In the case of `C[C@@H](O)[C@H](NC(=O)[C@H](Cc1ccc(O)cc1)NC(=O)[C@@H](NC(=O)[C@H](CCCCN)NC(=O)[C@@H](Cc1c[nH]c2ccccc12)NC(=O)[C@H](Cc1ccc(O)cc1)NC(=O)[C@H](Cc1ccc(O)cc1)NC(=O)[C@H](N)Cc1ccccc1)[C@@H](C)O)C(N)=O` [D61, D-Phe-Tyr^2-Tyr^3-D-Trp-Lys-Thr-Tyr^7-Thr-NH2] (H-[dF]YY[dW]KTYT-NH2), the values for the IC50 at 24 h in “in vitro” and in “in vitro” (setting [8]) were 1200 ± 100 µM and more than 1000 µM, respectively. Besides, the “Selectivity index SI, MCF-7” value in series [1] (2 h) was 1.3. Further, the figures for the IC50 in series [1], in series [2] and in series [3] were 426 ± 23.9 µM, 798 ± 24.4 µM and 555 ± 21.3 µM, respectively. Moreover, the “Selectivity index SI, MDA-MB-231” value in series [2] (2 h) stood at 0.69.
In “in vitro”, `C[C@@H](O)[C@H](NC(=O)[C@H](Cc1ccc(O)cc1)NC(=O)[C@@H](NC(=O)[C@H](CCCCN)NC(=O)[C@@H](Cc1c[nH]c2ccccc12)NC(=O)[C@H](Cc1ccc(O)cc1)NC(=O)[C@H](Cc1ccc(O)cc1)NC(=O)[C@H](N)Cc1ccc(O)cc1)[C@@H](C)O)C(N)=O` [D91, D-Tyr^1-Tyr^2-Tyr^3-D-Trp-Lys-Thr-Tyr^7-Thr-NH2] (H-[dY]YY[dW]KTYT-NH2) showed an IC50 at 24 h of 975 ± 81.7 µM. Besides, the “Selectivity index SI, MCF-7” value in series [1] (2 h) was 1.02. Besides, the IC50 in series [1] was 527 ± 54.2 µM; in series [2], 849 ± 21.2 µM; in series [3], 540 ± 27.2 µM. Also, the “Selectivity index SI, MDA-MB-231” value in series [2] (2 h) was 0.64.
For the molecule `C[C@@H](O)[C@H](NC(=O)[C@H](Cc1ccccc1)NC(=O)[C@@H](NC(=O)[C@H](CCCCN)NC(=O)[C@@H](Cc1c[nH]c2ccccc12)NC(=O)[C@H](Cc1ccc(O)cc1)NC(=O)[C@H](Cc1ccc(O)cc1)NC(=O)[C@H](N)Cc1ccccc1)[C@@H](C)O)C(N)=O` [D101, D-Phe-Tyr^2-Tyr^3-D-Trp-Lys-Thr-Phe-Thr-NH2] (H-[dF]YY[dW]KTFT-NH2), the values for the IC50 at 24 h in “in vitro” and in “in vitro” (setting [8]) were 1400 ± 52.3 µM and more than 1000 µM, respectively. Also, the “Selectivity index SI, MCF-7” value in series [1] (2 h) is reported as 0.84. Also, the IC50 turned out to be 717 ± 20.8 µM in series [1], 1400 ± 20 µM in series [2] and 604 ± 24.7 µM in series [3]. Further, the “Selectivity index SI, MDA-MB-231” value in series [2] (2 h) is recorded as 0.43.
Turning to `C[C@@H](O)[C@H](NC(=O)[C@H](Cc1ccc(O)cc1)NC(=O)[C@@H](NC(=O)[C@H](CCCCN)NC(=O)[C@@H](Cc1c[nH]c2ccccc12)NC(=O)[C@H](Cc1ccccc1)NC(=O)[C@H](Cc1ccccc1)NC(=O)[C@H](N)Cc1ccccc1)[C@@H](C)O)C(N)=O` [DD8, D-Phe-Phe-Phe-D-Trp-Lys-Thr-Tyr^7-Thr-NH2] (H-[dF]FF[dW]KTYT-NH2), the IC50 at 24 h in “in vitro” was determined as 483 ± 33.9 µM. Further, the “Selectivity index SI, MCF-7” value in series [1] (2 h) is given as 0.69. Moreover, the IC50 amounted to 235 ± 14.3 µM in series [1], 241 ± 13.4 µM in series [2] and 161 ± 7.97 µM in series [3]. In addition, the “Selectivity index SI, MDA-MB-231” value in series [2] (2 h) is listed as 0.67.
